Columns and labels:
B16F10 melanoma cells = assay: Cryo ablation of established B16F10 tumors plus peri-tumoral immunopotentiator, re-challenge after 40 days, Kaplan-Meier survival; assay type: in vivo, C57BL/6n mice; conditions: cryo ablation combined with immunopotentiator; for survival rate after 60 days: 30 μg p.t. within 30 min. after ablation, re-challenge with 15*10^3 B16F10 cells s.c. 40 days after ablation; for protection from tumor outgrowth (re-challenge, Kaplan-Meier): re-challenge 40 days later, result in words
Experimental: C57BL/6n mice (6-8 weeks old) were purchased from Charles River Wiga (Sulzfeld, Germany) and maintained under specific pathogen-free barrier conditions at the Central Animal Laboratory (Nijmegen, The Netherlands). Drinking water and standard laboratory food pellets were provided ad libitum and mice were allowed to settle for at least 1 week before random assignment into specific treatment groups. The experiments were performed according to the guidelines for animal care of the Nijmegen Animal Experiments Committee.
The murine melanoma cell line B16F10 (ATCC) was cultured in complete medium (MEM, 5% fetal bovine serum (Greiner Bio-one), 100 U/ml penicillin G sodium and 100 μg/ml streptomycin (Pen/Strep), MEM sodium pyruvate (1 mM), NaHCO3, MEM vitamins, MEM non-essential amino acids (all from Gibco), 20 μM β-mercaptoethanol (β-ME)).
B16F10 melanoma cells were suspended in a mixture of PBS and Matrigel (2:1), and 0.5*10^6 cells in a total volume of 50 μl were injected s.c. at the right femur. When tumor diameters measured between 6-8 mm (generally at day 9-10) they were randomly assigned to treatment groups. Cryo ablation (Cryo) was performed under isoflurane/O2/N2O anesthesia using a liquid nitrogen cryo ablation system (CS76, Frigitronics, Shelton, Conn.) of which the tip is cooled by a continuous flow of circulating liquid nitrogen. During 2 treatment cycles of freezing and thawing the tumor was macroscopically frozen, while leaving surrounding healthy tissue intact. To monitor the induction of long-lasting tumor protection, mice were re-challenged with 15*10^3 B16F10 cells 40 days after cryo ablation. Re-challenges were injected in 100 μl PBS s.c. on the right flank. Mice were sacrificed when tumor volume exceeded 1000 mm^3 or when tumors brake through the skin barrier.
CpG 1668 (‘5-[…]-3’) with total phosphorothioate-modified backbone was purchased from Sigma Genosys (Haverhill, UK). C-di-GMP was synthesized as described by Spehr V, Warrass R, Höcherl K, Ilg T., in Appl. Biochem. Biotechnol. 2011 Oct;165(3-4):761-75. CpG and/or C-di-GMP were peri-tumorally injected in PBS (p.t., 30 μg divided over 2 injections of 20 μl lining the ablated tumor). All injections were done within 30 min. after ablation.
(§1) Kaplan Meier survival curves were analyzed using a log rank test. Cytokine data was analyzed using ANOVA with a post-hoc Bonferroni test.
FIG. 1. Anti-tumor memory response following ablation combined with C-di-GMP and CpG. Established B16F10 tumors growing subcutaneously on the right femur were treated with cryo ablation alone, or combined with the indicated immunopotentiators Immunopotentiators ([…]) were injected in 40 μl PBS in the peri-tumoral area following the ablation. […]

[1] = test system: Mouse bone marrow dendritic cells; assay: Type-I IFN production by bone marrow dendritic cells, bioassay using L929 ISRE reporter cells; assay type: cell-based; conditions: overnight incubation of 1.2×10^5 DCs; CpG 1 μg/ml, c-GMP 10 μg/ml, c-di-GMP 10 μg/ml
Experimental: (§2) Mouse bone marrow dendritic cells were cultured with granulocyte-macrophage colony-stimulating factor (GM-CSF) and harvested at day 7 of culture. 1.2×10^5 cells were exposed during overnight incubation to the following immunopotentiators: CpG 1668 1 μg/ml, c-GMP 10 μg/ml, c-di-GMP 10 μg/ml. Next, supernatant was carefully harvested and IL12 or type-I IFN production was determined. For IL12 an ELISA method was used according to the manufacturer's instructions (BD Biosciences). Type-I IFN was determined by a standard bioassay using L929 ISRE reporter cells.
as §1
(§3) FIG. 2. Synergistic type I IFN production by DCs upon combined treatment with c-di-GMP and CpG. Mouse bone marrow dendritic cells were cultured with GM-CSF and harvested at day 7 of culture. 1.2×10^5 cells were exposed during overnight incubation to the indicated immmunopotentiators or combinations of immunopotentiators: CpG 1 μg/ml, c-GMP 10 μg/ml, c-di-GMP 10 μg/ml. Next, supernatant was harvested and type I IFN production was determined by a standard bioassay using L929 ISRE cells. Results are shown as means with sem, *=p<0.001 vs. all other bars. Similar results were obtained in three independent experiments.

[2] = test system: Mouse bone marrow dendritic cells; assay: IL12 production by bone marrow dendritic cells, ELISA; assay type: cell-based; conditions: overnight incubation of 1.2×10^5 DCs; CpG 1 μg/ml, c-GMP 10 μg/ml, c-di-GMP 10 μg/ml
Experimental: as §2, §1
as §3, with “3.” for “2.”, “IL12” for “type I IFN”, “indicated” for “indicated immmunopotentiators or combinations of”, “by” for “by a”, “ELISA methods.” for “bioassay using L929 ISRE cells.”, “*=p<0.001.” for “*=p<0.001 vs. all other bars.”

human colon cancer cell = conditions: in vitro; cited from earlier work

Compound	survival rate after 60 days (B16F10 melanoma cells)	protection from tumor outgrowth (re-challenge, Kaplan-Meier) (B16F10 melanoma cells)	type I IFN production (in words) [1]	IL12 production (in words) [2]	type I IFN production [1] [U/ml]	effect on basal and GF-stimulated cancer cell proliferation (human colon cancer cell)
5-TCCATGACGTTCCTGATGCT-3 (DNA, all phosphorothioate, methylation of C not given here) [CpG 1668, CpG ODN 20-mer, TLR9 agonist, purchased from Sigma Genosys]	approx. 50%	increased protection from tumor outgrowth	no IFN or only modest amounts of IFN	modest level of IL12 production	–	–
Nc1nc2c(ncn2[C@@H]2O[C@@H]3COP(=O)(O)O[C@H]3[C@H]2O)c(=O)[nH]1 [c-GMP]	–	–	no IFN or only modest amounts of IFN	do not produce IL12	–	–
Nc1nc2c(ncn2C2OC3COP(=O)(O)OC4C(COP(=O)(O)OC3C2O)OC(n2cnc3c(=O)[nH]c(N)nc32)C4O)c(=O)[nH]1 (centres unmarked) [c-di-GMP, 3′,5′-cyclic diguanylic acid]	approx. 50%	increased protection from tumor outgrowth	–	do not produce IL12	< 50	inhibitory effect
